# Assay results reported in patent publication EP1923473B1, “Bis-diglycolamides (BISDGA) as new extractants for lanthanides [Ln(III)] and actinides [An(III)] from aqueous high-level wastes” (Universidad Autónoma de Madrid, priority 2006, dated 2008).
# Test: Batch extraction from simulated HLLW from the PUREX process
# Type: physicochemical
# Conditions: 0.1 mol/L in TPH/1-octanol (90:10)
# Description: The feed solution used for the extraction tests is a simulated solution of an HLLW from the PUREX process, the composition of which is shown in Table 4. Table 4: Composition of the simulated HLLW-PUREX solution used for the extraction tests
# The composition of the HLLW corresponds to a burn-up of 33 GWd/tHM, the generated volume of HLLW being 5000 1/t of fuel. The feed was spiked with ^241Am, ^244Cm, ^252Cf and ^152Eu. Oxalic acid and N-(2-hydroxyethyl)ethylenediaminotriacetate (HEDTA) were also added before the extraction tests.
# 500 µL of the aqueous and organic phases were spiked with 10 µL of a tracer solution containing 241Am, 244Cm, 252Cf and ^152Eu, and were equilibrated for 10 minutes while they were stirred vigorously in a vortex stirrer. After the separation of the phases by centrifugation, 200 µL aliquots of each phase were taken for the determination of the concentration of ^241Am and ^152Eu using a high-purity germanium spectrometer system (EG&G Ortec). The nuclides ^241Am, ^244Cm and ^252Cf were measured by alpha spectrometry with an α-Analyst device of the company Canberra-Packard GmbH, Germany.
# The concentrations of the stable elements were determined by mass spectrometry with an inductively coupled plasma source (ICP-MS) in a DRC Elan 6100 device of Perkin Elmer Sciex. The aqueous phase was measured directly after the appropriate dilution. The organic phase was analyzed after having mineralized the organic matter by microwave acid digestion and subsequent dilution.
# The distribution coefficients were calculated for each element according to section C).
# A 0.1 mol/L solution of compound 4 in the "TPH/1-octanol (90:10)%vol" mixture was prepared. Extraction experiments were carried out with said simulated HLLW in a pure form and also adding oxalic acid and HEDTA to it. These complexing agents have shown to be effective in the DIAMEX process for the complexing of Mo, Zr (H2C2O4) and Pd (HEDTA).
# Extraction experiments were carried out with said simulated HLLW in a pure form and also adding oxalic acid and HEDTA to it.
# [1] = Oxalic acid 0.2 mol/L, HEDTA 0.05 mol/L, TBP 0.5 mol/L
# [2] = Oxalic acid 0.2 mol/L, HEDTA 0.05 mol/L, TBP No
# [3] = Oxalic acid 0.3 mol/L, HEDTA 0.05 mol/L, TBP 0.5 mol/L
# [4] = Oxalic acid 0.3 mol/L, HEDTA 0.05 mol/L, TBP No
# [5] = Oxalic acid No, HEDTA No, TBP 0.5 mol/L
# [6] = Oxalic acid No, HEDTA No, TBP No
substance,measurement,setting,value
2-Dioctylcarbamoylmethoxy-N-[3-[(2-dioctylcarbamoyl-methoxy-acetylamino)methyl]benzyl]acetamide [Compound 4],Distribution coefficients Ag,[1],0.013
same,Distribution coefficients Ba,[1],0.0002
same,Distribution coefficients Cd,[1],0.035
same,Distribution coefficients Ce,[1],16
same,Distribution coefficients Cf-252,[1],702
same,Distribution coefficients Cm-244,[1],83
same,Distribution coefficients Cs,[1],0.000087
same,Distribution coefficients Eu,[1],362
same,Distribution coefficients Eu-152,[1],430
same,Distribution coefficients Gd,[1],91
same,Distribution coefficients La,[1],10
same,Distribution coefficients Mo,[1],0.065
same,Distribution coefficients Nd,[1],52
same,Distribution coefficients Pd,[1],0.081
same,Distribution coefficients Pr,[1],26
same,Distribution coefficients Rb,[1],0.0082
same,Distribution coefficients Rh,[1],0.00068
same,Distribution coefficients Ru,[1],0.29
same,Distribution coefficients Sm,[1],253
same,Distribution coefficients Y,[1],1698
same,Distribution coefficients Zr,[1],0.062
same,Distribution coefficients Ag,[2],0.013
same,Distribution coefficients Ba,[2],0.00019
same,Distribution coefficients Cd,[2],0.034
same,Distribution coefficients Ce,[2],36
same,Distribution coefficients Cf-252,[2],2057
same,Distribution coefficients Cm-244,[2],262
same,Distribution coefficients Cs,[2],0.000087
same,Distribution coefficients Eu,[2],764
same,Distribution coefficients Eu-152,[2],379
same,Distribution coefficients Gd,[2],239
same,Distribution coefficients La,[2],21
same,Distribution coefficients Mo,[2],0.087
same,Distribution coefficients Nd,[2],142
same,Distribution coefficients Pd,[2],0.073
same,Distribution coefficients Pr,[2],59
same,Distribution coefficients Rb,[2],0.0093
same,Distribution coefficients Rh,[2],0.00086
same,Distribution coefficients Ru,[2],0.29
same,Distribution coefficients Sm,[2],690
same,Distribution coefficients Y,[2],1766
same,Distribution coefficients Zr,[2],0.096
same,Distribution coefficients Ag,[3],0.012
same,Distribution coefficients Ba,[3],0.0002
same,Distribution coefficients Cd,[3],0.036
same,Distribution coefficients Ce,[3],21
same,Distribution coefficients Cf-252,[3],1403
same,Distribution coefficients Cm-244,[3],133
same,Distribution coefficients Cs,[3],0.000087
same,Distribution coefficients Eu,[3],446
same,Distribution coefficients Eu-152,[3],348
same,Distribution coefficients Gd,[3],190
same,Distribution coefficients La,[3],13.7
same,Distribution coefficients Mo,[3],0.094
same,Distribution coefficients Nd,[3],68
same,Distribution coefficients Pd,[3],0.041
same,Distribution coefficients Pr,[3],32
same,Distribution coefficients Rb,[3],0.0081
same,Distribution coefficients Rh,[3],0.00067
same,Distribution coefficients Ru,[3],0.24
same,Distribution coefficients Sm,[3],378
same,Distribution coefficients Y,[3],1658
same,Distribution coefficients Zr,[3],0.022
same,Distribution coefficients Ag,[4],0.013
same,Distribution coefficients Ba,[4],0.0002
same,Distribution coefficients Cd,[4],0.037
same,Distribution coefficients Ce,[4],32
same,Distribution coefficients Cf-252,[4],1816
same,Distribution coefficients Cm-244,[4],286
same,Distribution coefficients Cs,[4],0.000604
same,Distribution coefficients Eu,[4],513
same,Distribution coefficients Eu-152,[4],553
same,Distribution coefficients Gd,[4],258
same,Distribution coefficients La,[4],18
same,Distribution coefficients Mo,[4],0.115
same,Distribution coefficients Nd,[4],120
same,Distribution coefficients Pd,[4],0.043
same,Distribution coefficients Pr,[4],53
same,Distribution coefficients Rb,[4],0.0082
same,Distribution coefficients Rh,[4],0.00069
same,Distribution coefficients Ru,[4],0.17
same,Distribution coefficients Sm,[4],451
same,Distribution coefficients Y,[4],1708
same,Distribution coefficients Zr,[4],0.099
same,Distribution coefficients Ag,[5],39
same,Distribution coefficients Ba,[5],0.00019
same,Distribution coefficients Cd,[5],0.033
same,Distribution coefficients Ce,[5],16
same,Distribution coefficients Cf-252,[5],692
same,Distribution coefficients Cm-244,[5],95
same,Distribution coefficients Cs,[5],0.000082
same,Distribution coefficients Eu,[5],327
same,Distribution coefficients Eu-152,[5],294
same,Distribution coefficients Gd,[5],122
same,Distribution coefficients La,[5],10
same,Distribution coefficients Mo,[5],0.066
same,Distribution coefficients Nd,[5],55
same,Distribution coefficients Pd,[5],2.6
same,Distribution coefficients Pr,[5],26
same,Distribution coefficients Rb,[5],0.0080
same,Distribution coefficients Rh,[5],0.00069
same,Distribution coefficients Ru,[5],0.27
same,Distribution coefficients Sm,[5],233
same,Distribution coefficients Y,[5],1773
same,Distribution coefficients Zr,[5],295
same,Distribution coefficients Ag,[6],37
same,Distribution coefficients Ba,[6],0.00019
same,Distribution coefficients Cd,[6],0.034
same,Distribution coefficients Ce,[6],23
same,Distribution coefficients Cf-252,[6],2079
same,Distribution coefficients Cm-244,[6],191
same,Distribution coefficients Cs,[6],0.000084
same,Distribution coefficients Eu,[6],685
same,Distribution coefficients Eu-152,[6],293
same,Distribution coefficients Gd,[6],166
same,Distribution coefficients La,[6],13
same,Distribution coefficients Mo,[6],0.069
same,Distribution coefficients Nd,[6],94
same,Distribution coefficients Pd,[6],2.5
same,Distribution coefficients Pr,[6],39
same,Distribution coefficients Rb,[6],0.0078
same,Distribution coefficients Rh,[6],0.00066
same,Distribution coefficients Ru,[6],0.25
same,Distribution coefficients Sm,[6],615
same,Distribution coefficients Y,[6],1753
same,Distribution coefficients Zr,[6],133
